Measured values: US4755526A, “Method of inhibiting aromatase” (Eli Lilly and Company, priority 1984, dated 1988)

Columns and labels:
estrogen synthesis = assay: Estrogen synthesis inhibition in rats (uterine weight and ovarian steroid concentrations); format: in vivo, female Wistar rats; details: for Mean Steroid Concentration, estradiol / Mean Steroid Concentration, estriol / Mean Steroid Concentration, estrone: ovaries; for Mean Uterine Weight: testosterone propionate-treated rats
Description: Test compounds were administered for seven days either daily by gavage in corn oil or as a component of the diet. Control animals received either corn oil or diet without the test compound. Beginning on the fourth day of the test, all animals treated with the test compound and one half of the control animals were given a subcutaneous injection of 1.0 mg of testosterone propionate in corn oil. The remaining control animals received only an equivalent volume of corn oil.
After two hours, the animals were killed by decapitation. Uteri were isolated, trimmed of extraneous connective tissue, and weighed. […] In the control animals treated with testosterone propionate, estrogens produced by aromatization stimulated the uterus resulting in an increase in weight.
The ovarian steroids were extracted with 1.5 ml of 9:1 (v/v) toluene/ethanol to which had been added 25 to 100 mcg each of unlabelled estradiol, estriol, and estrone, and approximately 1000 dpm of [^14 C]-estradiol. The samples were vortexed, centrifuged at 500×g for 10 minutes, and the organic phase was transferred to a conical vial. Two additional extractions were performed on the residue in the same way. The pooled organic extracts were evaporated for subsequent thin-layer chromatography.
Ovarian proteins were precipitated by the addition of 5.0 ml of ethanol to the remaining aqueous phase. After an overnight incubation at 4° C., the samples were centrifuged at 1500×g for 10 minutes. The supernatant was discarded, and the pellet was dissolved in 0.3N potassium hydroxide.
The organic residue from each above extraction was redissolved in 9:1 (v/v) dichloromethane/methanol. The solution of each sample was applied to separate silica gel thin layer chromatography plates which contained a fluorescent indicator. The plates were developed in the first dimension with 160:38:1.5:0.5 (v/v/v/v) dichloromethane/ethyl acetate/methanol/acetic acid to within 3 cm of the top of the plate. After air-drying, the plate was developed in the second dimension with 180:19:1 (v/v/v) dichloromethane/methanol/ammonium hydroxide. The plate was air-dried and viewed under 254 nm UV light.
The visible spots were marked and the plates were sprayed with primulin (0.001% in 4:1 v/v acetone/water) according to the method of Wright, J. Chromatography, 59, 220 (1971) which allowed for the identification of additional steroids under 365 nm UV light. The spots were scraped from the plate using a glass wool plugged Pasteur pipet attached to a vacuum line. The steroids were eluted directly into scintillation vials by the addition of 0.2 ml of dichloromethane followed by two washes each of 2.0 ml of methanol. The organic solvent was evaporated and 10.0 ml of scintillation fluid (Beckman Ready Solv-NA) was added to the vials. Samples were analyzed by liquid scintillation spectrometry. Corrections were made based on the recoveries of the [^14 C]-steroid. Steroid concentrations are expressed as femtomoles per milligram protein.

[1] = test system: DMBA-induced mammary tumors; assay: DMBA-induced mammary tumor inhibition; format: in vivo, female Sprague-Dawley rats
Description: Mammary tumors were produced in female Sprague-Dawley rats which were 50-60 days old by the gavage administration of 20 mg of 7,12-dimethylbenz[a]anthracene (DMBA). About six weeks after DMBA administration, the mammary glands were palpated at weekly intervals for the appearance of tumors. Whenever one or more tumors appeared and were measurable in an animal, that animal was selected for experimentation. […] Each control and test group contained 8 animals. The test compound was administered either mixed into the food at a concentration of 300 ppm (corresponding to an appropriate daily dose of 30 mg/kg) or the compounds were dissolved or suspended in corn oil and administered once daily by gavage. Every experiment included a group of control rats having tumors and were either given food without the compound admixed or corn oil vehicle by gavage, depending on how the test compound was administered. […] The area of each tumor was calculated by multiplying the shortest and longest diameters of the tumor. The treatment and measurement of animals continued for 4-8 weeks at which time the final areas of the tumors were determined. For each compound (and control) at each dose level, the change in the mean tumor area was determined. The mean change was analyzed for its significance using Dunnett's t-test.

aromatase = molecular target: T1, aromatase (Rattus norvegicus, UniProt P22443); assay: Aromatase inhibition in the rat ovarian microsome assay; format: biochemical; details: EC50: concentration required to achieve 50% inhibition of aromatase activity, substrate (androstenedione) concentration 0.1 μM
T1 construct: ovarian microsomes are obtained from rats treated with pregnant mares serum gonadotropin; from tissue; host or cells: ovarian microsomes of rats treated with pregnant mares serum gonadotropin
T1 sequence (P22443 1-508): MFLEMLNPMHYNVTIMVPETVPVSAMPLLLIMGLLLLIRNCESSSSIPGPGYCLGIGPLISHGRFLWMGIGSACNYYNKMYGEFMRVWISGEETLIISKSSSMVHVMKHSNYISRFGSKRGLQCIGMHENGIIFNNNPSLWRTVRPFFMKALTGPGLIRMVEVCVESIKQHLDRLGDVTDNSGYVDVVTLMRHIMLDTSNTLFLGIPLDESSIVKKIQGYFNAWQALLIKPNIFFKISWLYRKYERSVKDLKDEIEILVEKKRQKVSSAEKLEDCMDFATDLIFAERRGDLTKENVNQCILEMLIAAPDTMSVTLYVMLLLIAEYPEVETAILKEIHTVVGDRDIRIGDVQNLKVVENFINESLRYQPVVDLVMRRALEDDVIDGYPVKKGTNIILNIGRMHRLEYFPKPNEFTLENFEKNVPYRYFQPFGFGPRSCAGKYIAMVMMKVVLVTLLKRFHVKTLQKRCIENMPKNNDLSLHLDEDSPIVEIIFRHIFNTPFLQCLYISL
Description: In this test system, ovarian microsomes are obtained from rats treated with pregnant mares serum gonadotropin. Test compounds are added to reaction vials containing 0.1 μM 4-androstene-3,17-dione, 100,000 dpm 1,2[^3 H]-androstenedione, the microsomes and a NADPH generating system. The concentrations of the inhibitors tested ranged between 0.005 and 10 μM.

breast cancer = details: Cancer Research, Vol. 42, Suppl. 8: 3261s (1982); cited from earlier work
[2] = 30 ppm in feed (approximately 3 mg/kg/day)
[3] = 300 ppm in feed (approximately 30 mg/kg/day)
[4] = 300 ppm in diet, 4 weeks, control 62.8 to 1087.3 (Test II), 1087.0 (Test III)

Clc1ccc(C(c2ccccc2)n2ccnc2)cc1 (stereo not shown) [1-[(4-chlorophenyl)phenylmethyl]-1H--imidazole]
Mean Steroid Concentration, estradiol (estrogen synthesis; [2]): 0.92 femtomoles per milligram of protein | Mean Steroid Concentration, estriol (estrogen synthesis; [2]): 0.75 femtomoles per milligram of protein | Mean Uterine Weight (estrogen synthesis; [2]): 114.8 mg | Mean Steroid Concentration, estradiol (estrogen synthesis; [3]): 0.00 femtomoles per milligram of protein | Mean Steroid Concentration, estriol (estrogen synthesis; [3]): 0.35 femtomoles per milligram of protein | Mean Steroid Concentration, estrone (estrogen synthesis; [3]): 0.11 femtomoles per milligram of protein | Mean Uterine Weight (estrogen synthesis; [3]): 68.4 mg | Mean Tumor Area, Start ([1]; 300 ppm in diet, 5 weeks test): 49.3 mm^2 | Mean Tumor Area, Finish ([1]; 300 ppm in diet, 5 weeks, control 48.4 to 818.0): 467.0 mm^2

Clc1ccc(C(c2ccc(Cl)cc2)n2ccnc2)cc1 [1-[bis(4-chlorophenyl)methyl]imidazole]
Mean Steroid Concentration, estrone (estrogen synthesis; [2]): 0.09 femtomoles per milligram of protein | Mean Uterine Weight (estrogen synthesis; [2]): 85.3 mg | Mean Uterine Weight (estrogen synthesis; [3]): 66.0 mg | Mean Tumor Area, Start ([1]; 5 mg/kg daily by gavage, 4 weeks test): 44.8 mm^2 | Mean Tumor Area, Finish ([1]; 5 mg/kg daily by gavage, 4 weeks, control 54.8 to 914.0): 346.0 mm^2 | Mean Tumor Area, Start ([1]; 30 mg/kg daily by gavage, 4 weeks test): 62.4 mm^2 | Mean Tumor Area, Finish ([1]; 30 mg/kg daily by gavage, 4 weeks, control 54.8 to 914.0): 276.0 mm^2 | Mean Tumor Area, Start ([1]; 300 ppm in diet, 6 weeks test): 57.4 mm^2 | Mean Tumor Area, Finish ([1]; 300 ppm in diet, 6 weeks, control 49.6 to 752.1): 40.8 mm^2

O=[N+]([O-])c1ccc(C(c2ccc([N+](=O)[O-])cc2)n2ccnc2)cc1 [1-[bis(4-nitrophenyl)methyl]imidazole]
Mean Steroid Concentration, estradiol (estrogen synthesis; [2]): 0.92 femtomoles per milligram of protein | Mean Steroid Concentration, estriol (estrogen synthesis; [2]): 1.65 femtomoles per milligram of protein | Mean Steroid Concentration, estrone (estrogen synthesis; [2]): 1.58 femtomoles per milligram of protein | Mean Uterine Weight (estrogen synthesis; [2]): 105.0 mg | Mean Steroid Concentration, estradiol (estrogen synthesis; [3]): 0.28 femtomoles per milligram of protein | Mean Steroid Concentration, estriol (estrogen synthesis; [3]): 0.83 femtomoles per milligram of protein | Mean Steroid Concentration, estrone (estrogen synthesis; [3]): 0.94 femtomoles per milligram of protein | Mean Uterine Weight (estrogen synthesis; [3]): 110.8 mg | Mean Tumor Area, Start ([1]; 300 ppm in diet, 4 weeks test): 64.5 mm^2 | Mean Tumor Area, Finish [1, 4]: 18.9 mm^2

Clc1ccc(C(c2ccc(Cl)cc2)(c2cccnc2)n2ccnc2)cc1 [3-[4,4'-dichloro-α-(1-imidazolyl)diphenylmethyl]pyridine]
Mean Steroid Concentration, estradiol (estrogen synthesis; [2]): 1.25 femtomoles per milligram of protein | Mean Steroid Concentration, estriol (estrogen synthesis; [2]): 0.27 femtomoles per milligram of protein | Mean Steroid Concentration, estrone (estrogen synthesis; [2]): 0.11 femtomoles per milligram of protein | Mean Uterine Weight (estrogen synthesis; [2]): 118.0 mg | Mean Steroid Concentration, estradiol (estrogen synthesis; [3]): 0.75 femtomoles per milligram of protein | Mean Steroid Concentration, estriol (estrogen synthesis; [3]): 0.28 femtomoles per milligram of protein | Mean Steroid Concentration, estrone (estrogen synthesis; [3]): 0.24 femtomoles per milligram of protein | Mean Uterine Weight (estrogen synthesis; [3]): 96.8 mg | Mean Tumor Area, Start ([1]; 300 ppm in diet, 4 weeks test): 53.8 mm^2 | Mean Tumor Area, Finish [1, 4]: 154.0 mm^2

Clc1ccc(C(c2ccc(Cl)cc2)(c2cccnc2)n2cncn2)cc1 [3-[bis(4-chlorophenyl)-1H--1,2,4-triazol-1-ylmethyl]pyridine]
EC50 (aromatase): 60 nM | Mean Steroid Concentration, estradiol (estrogen synthesis; [2]): 1.83 femtomoles per milligram of protein | Mean Steroid Concentration, estriol (estrogen synthesis; [2]): 0.36 femtomoles per milligram of protein | Mean Steroid Concentration, estrone (estrogen synthesis; [2]): 0.06 femtomoles per milligram of protein | Mean Uterine Weight (estrogen synthesis; [2]): 150.8 mg | Mean Steroid Concentration, estradiol (estrogen synthesis; [3]): 1.18 femtomoles per milligram of protein | Mean Steroid Concentration, estriol (estrogen synthesis; [3]): 0.13 femtomoles per milligram of protein | Mean Steroid Concentration, estrone (estrogen synthesis; [3]): 0.06 femtomoles per milligram of protein | Mean Uterine Weight (estrogen synthesis; [3]): 85.6 mg

c1ccc(C(c2ccccc2)(c2ccncc2)n2ccnc2)cc1 [4-(1H--imidazol-1-yl-diphenylmethyl)pyridine]
EC50 (aromatase): 12 nM | Mean Steroid Concentration, estradiol (estrogen synthesis; [2]): 0.78 femtomoles per milligram of protein | Mean Steroid Concentration, estriol (estrogen synthesis; [2]): 0.35 femtomoles per milligram of protein | Mean Steroid Concentration, estrone (estrogen synthesis; [2]): 0.25 femtomoles per milligram of protein | Mean Uterine Weight (estrogen synthesis; [2]): 156.0 mg | Mean Steroid Concentration, estradiol (estrogen synthesis; [3]): 0.61 femtomoles per milligram of protein | Mean Steroid Concentration, estriol (estrogen synthesis; [3]): 0.29 femtomoles per milligram of protein | Mean Steroid Concentration, estrone (estrogen synthesis; [3]): 0.23 femtomoles per milligram of protein | Mean Uterine Weight (estrogen synthesis; [3]): 110.8 mg

CCC1(c2ccc(N)cc2)CCC(=O)NC1=O (stereo not shown) [aminoglutethimide]
effect in treatment of breast cancer (breast cancer): beneficial effect in treatment of breast cancer

C[C@]12C=CC(=O)C=C1CC[C@@H]1[C@@H]2CC[C@]2(C)OC(=O)CC[C@@H]12 [testolactone]
effect in treatment of breast cancer (breast cancer): beneficial effect in treatment of breast cancer
